Assay results published in paper PMC5320564 (Journal of molecular biology, 2011).

Legend:
EcPhnD-Q17C:IANBD = EcPhnD-Q17C:IANBD (Escherichia coli, UniProt P16682, Q43C); assay type: binding
EcPhnD142-cpGFP = assay type: binding, Escherichia coli
EcPhnD-K181C:IANBD = EcPhnD-K181C:IANBD (Escherichia coli, UniProt P16682, K207C); assay: biochemical; assay type: binding
EcPhnD-Q267C:acrylodan = details: read-out: Phosphonate affinities (Kd); cited from earlier work
EcPhnD = EcPhnD (Escherichia coli, UniProt P16682); details: read-out: affinity; cited from earlier work
[1] = test system: EcPhnD with cpGFP inserted at position 147; assay type: binding, Escherichia coli
[2] = target: EcPhnD90-cpGFP.L1ADΔΔ.L297R,L301R (Escherichia coli, UniProt Q1R3F7, L323R/L327R, form not given); assay type: binding
EcPhnD87-cpGFP = assay type: binding, Escherichia coli
crystal structure = target: the molecule itself; assay: crystal structure

EcPhnD-K181C:IANBD, sequence (P16682 27-338 K207C): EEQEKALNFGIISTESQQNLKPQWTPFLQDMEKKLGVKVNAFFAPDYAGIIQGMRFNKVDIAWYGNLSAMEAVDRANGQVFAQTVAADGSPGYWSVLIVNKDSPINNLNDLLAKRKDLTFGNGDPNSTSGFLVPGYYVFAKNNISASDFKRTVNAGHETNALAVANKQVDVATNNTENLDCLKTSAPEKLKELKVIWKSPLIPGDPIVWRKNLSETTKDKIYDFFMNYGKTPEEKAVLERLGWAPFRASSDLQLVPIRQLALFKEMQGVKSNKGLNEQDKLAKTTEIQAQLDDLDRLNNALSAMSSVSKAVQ
EcPhnD-Q17C:IANBD, sequence (P16682 27-338 Q43C): as the sequence (P16682 27-338 K207C) above, with Q17C, C181K counted along it

NCCP(=O)(O)O [2AEP, 2-aminoethylphosphonate]
Kd (EcPhnD-Q17C:IANBD): 11 ± 5 nM | ΔF/F0 (EcPhnD-Q17C:IANBD): 1.2±0.1 | affinity for 2AEP by ITC (in words) (EcPhnD142-cpGFP): dramatically decreased affinity | Kd (EcPhnD-K181C:IANBD): 0.54 ± 0.04 µM | ΔF/F0 (EcPhnD-K181C:IANBD): −0.72±0.01 | Kd (EcPhnD-Q267C:acrylodan): 0.005 µM | Kd (EcPhnD): ~5 nM | affinity for 2AEP by ITC (in words) [1]: dramatically decreased affinity | ΔF/F0 increase [2]: 1.6 | Kd ([2]; read-out: Phosphonate affinities (Kd)): 37 ± 7 µM | affinity for 2AEP by ITC (in words) (EcPhnD87-cpGFP): high affinity

O=C(O)CNCP(=O)(O)O [Glyphosate (GP), Glyphosate]
Kd (EcPhnD-K181C:IANBD): 260 ± 20 µM | Kd (EcPhnD-Q267C:acrylodan): 650 µM

B1: Selenomethionine-substituted EcPhnD (natural protein, E. coli, UniProt P16682 27-338, looked up)
chain: EEQEKALNFGIISTESQQNLKPQWTPFLQDMEKKLGVKVNAFFAPDYAGIIQGMRFNKVDIAWYGNLSAMEAVDRANGQVFAQTVAADGSPGYWSVLIVNKDSPINNLNDLLAKRKDLTFGNGDPNSTSGFLVPGYYVFAKNNISASDFKRTVNAGHETNALAVANKQVDVATNNTENLDKLKTSAPEKLKELKVIWKSPLIPGDPIVWRKNLSETTKDKIYDFFMNYGKTPEEKAVLERLGWAPFRASSDLQLVPIRQLALFKEMQGVKSNKGLNEQDKLAKTTEIQAQLDDLDRLNNALSAMSSVSKAVQ
modifications: selenomethionine in place of methionine
stoichiometry N (crystal structure): 2

B2: EcPhnD H157A (natural protein, E. coli, UniProt P16682 27-338, looked up)
chain: EEQEKALNFGIISTESQQNLKPQWTPFLQDMEKKLGVKVNAFFAPDYAGIIQGMRFNKVDIAWYGNLSAMEAVDRANGQVFAQTVAADGSPGYWSVLIVNKDSPINNLNDLLAKRKDLTFGNGDPNSTSGFLVPGYYVFAKNNISASDFKRTVNAGAETNALAVANKQVDVATNNTENLDKLKTSAPEKLKELKVIWKSPLIPGDPIVWRKNLSETTKDKIYDFFMNYGKTPEEKAVLERLGWAPFRASSDLQLVPIRQLALFKEMQGVKSNKGLNEQDKLAKTTEIQAQLDDLDRLNNALSAMSSVSKAVQ
stoichiometry N (crystal structure): 2
